Source: patent US11389449B2, “Treatment of metabolic syndrome with an sGC stimulator” (Cyclerion Therapeutics, Inc., priority 2017, dated 2022)

Assays:
ZSF1 obese rats [1] = test: Oral glucose tolerance test (OGTT) and fasting glucose in ZSF1 rats at week 10; type: in vivo, rat; conditions: enalapril 3 mpk
Description: Male ZSF1 rats (body weight 400-430 grams (lean control) and 500-605 grams (obese) at baseline) were used for this study. All animals were housed in a room under controlled conditions of temperature (72±8° F.), relative humidity of 30-70% and a 12-hour light-dark cycle (lights on at 6:00 AM and off at 6:00 PM) at a fully AAALAC accredited, USDA registered and OLAW assured laboratory animal research facility. All animals were allowed free access to rodent chow (Purina 5008+/−test articles) and water (+/−enalapril).
(§1) Blood and 24-hour urine samples were obtained from all animals at day 0 (15 weeks of age; prior to the initiation of enalapril treatment). Animals in Groups 3, 7, 8 and 9 were placed on drinking water containing enalapril and kept on Purina 5008 rodent chow (C13000). Animals in Group 1, 2, 4, 5 and 6 were kept on Purina 5008 rodent chow and drinking water. Ten days after the initiation of enalapril treatment, blood and 24-hour urine samples were collected from all animals. After day 10 blood and urine collections, animals in Groups 4, 5 and 6 received Compound I at 1, 3 and 10 mg/kg/day, respectively for 11 weeks. In addition to enalapril treatment, animals in Groups 7, 8 and 9 received Compound I at 1, 3 and 10 mg/kg/day, respectively for an additional 11 weeks.
(§2) 10 weeks after the initiation of Compound I treatment, animals (27 weeks of age) were fasted for 18 hours. Serum samples were collected for the measurement of fasting insulin levels. Serum insulin levels were determined using the Rat Insulin ELISA kit (Cat #ELR-Insulin, RayBiotech, Inc.)
For OGTT, animals were given glucose solution (50% Dextrose) at 2 g/kg via oral gavage. Blood samples were collected prior to oral glucose administration (0 minute) and 30, 60, 90, 120 and 180 minutes after administration. Blood glucose levels were measured using a standard blood glucose monitoring system (AlphaTRAK). The blood glucose reading at time 0 (prior to glucose administration) corresponds to the fasting glucose measurement.
(§3) The data are expressed as mean±SEM. […] One-tailed tests were used for comparison of variables. Statistical significance is indicated by P values less than 0.05.

ZSF1 obese rats [2] = test: Fasting serum insulin in ZSF1 rats (Rat Insulin ELISA); type: in vivo; conditions: week 10, enalapril 3 mpk
From the text: as §1, §2, §3

ZSF1 obese rats [3] = test: ZSF1 rat study: serum clinical chemistry (cholesterol, triglycerides), body weight, clinical observations; type: in vivo; conditions: ZSF1 obese rats; enalapril 3 mg/kg/day; Animal #8; 3 days after initiation
From the text: as §1
Body weight and 24-hour water intake were obtained at least once every other week. 24-hour food intake was measured at baseline and week 8.
Plasma (for biomarker) and serum (for clinical chemistry analysis) samples were collected from all treatment groups at baseline, day 10, weeks 5 and 9 prior to placing the animals into the metabolic cages. Plasma samples were obtained from Groups 3-9 for measurement of compound exposure levels at weeks 5 and 11. Terminal plasma and serum samples were obtained at necropsy.
For serum samples, blood was collected in serum separator tubes, maintained at room temperature for at least 30 minutes and then centrifuged at 6000 rpm for 10 minutes. Serum samples were stored at −80° C. until analysis. Urine and serum samples were analyzed using the Randox Daytona Clinical Chemistry Analyzer. All measurements were performed in accordance with manufacturer's instructions.
Animal #8 (in Group 3, ZSF1—enalapril 3 mg/kg/day) was found dead 3 days after the initiation of enalapril treatment.

## CCOC(=O)[C@H](CCc1ccccc1)N[C@@H](C)C(=O)N1CCC[C@H]1C(=O)O [enalapril, reference compound]
ZSF1 obese rats [1]
  Fasting Blood Glucose (0 minute): 255 ± 13 mg/dL
  OGTT Area Under Curve (AUC): 84459 ± 1409
  OGTT Blood Glucose 120 minutes: 452 ± 10 mg/dL
  OGTT Blood Glucose 180 minutes: 435 ± 9 mg/dL
ZSF1 obese rats [2]
  Fasting Insulin: 11.4 ± 1.7 μIU/mL
ZSF1 obese rats [3]
  clinical observation: found dead
